Assay results taken from patent US10676436B2, “NLRX1 ligands” (Landos Biopharma, Inc., priority 2018, dated 2020).

Tests used:
Human NLRX1 (NLRX1-WT) = molecular target: T1, Human NLRX1 (NLRX1-WT) (Homo sapiens, UniProt Q86UT6); assay: Surface plasmon resonance binding to NLRX1-WT
T1 construct: made in house; host or cells: Pichia pastoris
Method: (§1) NLRX1 production and purification. Human NLRX1 (www.uniprot.org; UniProtKB—Q86UT6 (NLRX1 HUMAN)) was cloned into E. coli, amplified and transfected in Pichia pastoris. P. pastoris was plated onto adenine selective media. Stable transfected colonies were selected and grown within YPD broth at 30° C. for 24 hours, 240 RPM shaking. Starter culture was used to inoculate base media (1% yeast extract, 2% peptone, 1% sorbitol, 2% yeast nitrogen base) containing biotin and buffered with potassium phosphate. Inoculated base media was incubated for 48 hours at 30° C., 240 RPM. P. pastoris was then pelleted by centrifugation and resuspended in expression media (1% sorbitol, 2% yeast nitrogen base) containing biotin and buffered with potassium phosphate. Culture was induced daily for protein production through addition of methanol and incubated for a total of 4 days at 28° C., 240 RPM. After incubation, cells were pelleted by centrifugation and lysed by sonication. Recombinant NLRX1 protein was purified by fast protein liquid chromatography (AktaPrime) using immobilized metal affinity chromatography. Fractions of protein were eluted in 1 mL aliquots and evaluated for NLRX1 content. A mutated NLRX1 protein was generated using similar methods to disrupt binding within the predicted binding site through altering four residues to alanine (D677A, F680A, F681A, and E684A).
(§2) A Biacore T200 was used to evaluate binding to the NLRX1 protein. NLRX1-WT and NLRX1-Mutant were used as proteins to immobilize onto the CM5 sensor chip. NLRX1-WT was diluted in 10 mM sodium acetate buffer at pH 4.0 and immobilized onto the flow cell to a level of ˜3700 RU, using standard amine coupling chemistry. NLRX1-Mutant was diluted in 10 mM sodium acetate buffer at pH 4.0 and immobilized onto the flow cell to a level of ˜3100 RU, using standard amine coupling chemistry. 20 mM MOPS, 150 mM NaCl, 5 mM sodium acetate, 1 mM EDTA, 0.05% Tween-20, pH 8.0 buffer (Running buffer) was used as the immobilization running buffer. Based on the immobilized response values, theoretical Rmax values were calculated. The Rmax values assume 1:1 interaction mechanism. Overnight kinetics were performed for all analytes binding to the immobilized proteins. The kinetics experiments were performed in the μL/min. presence of running buffer+1% DMSO. The flow rate of all solutions was maintained at 50 Analyte concentrations were 0 μM, 2.5 μM, 5 μM 10 μM 20 μM and 40 μM.

CD4+ T cells = assay: Immunological screening in vitro in CD4+ splenocytes, flow cytometry; type: cell-based, C57BL/6 mice; conditions: for proportion of IFNγ producing (IFNγ+) CD4+ T cells / proportion of TNFα producing (TNFα+) CD4+ T cells: wild-type cells, 48 h, PMA and ionomycin; for size and dose dependence of the effect on TNFα producing and IFNγ producing cells: within the range tested
From the text: Spleens were excised from C57BL/6 mice. Spleens were crushed between the frosted ends of microscope slides and filtered to provide a cellular suspension. Red blood cells were lysed through hypotonic lysis. Remaining cells were washed and filtered. CD4+ T cells were enriched within the suspension using magnetic sorting based negative selection. Cells were collected and plated within 96 well plates coated with anti-CD3 and cultured in the presence of NX-13, NX-37, NX-43, NX-44, or NX-50 at 0, 0.1, 1 or 10 micromolar; NX-53, NX-54, NX-55, or NX-56 at 0, 0.1, or 1 micromolar; or NX-45 at 10, 50 or 100 nanomolar for 48 h. During the last 6 h of culture, cells were stimulated with phorbol 12-myristate-13-acetate (PMA) and ionomycin.
Cells were collected from 96 well plates and stained with a cocktail of antibodies for immunophenotyping by flow cytometry. Culture supernatant was collected and assayed for cytokine concentrations by cytometric bead array. Data was captured on a BD FACS Celesta and analyzed using FacsDiva.

[1] = molecular target: T2, mutated NLRX1 protein (D677A, F680A, F681A, E684A) (Homo sapiens, UniProt Q86UT6, D677A/E684A/F680A/F681A); assay: Surface plasmon resonance binding to NLRX1-Mutant
T2 construct: made in house; host or cells: Pichia pastoris (by 'similar methods')
Method: as §1
as §2, with “The Rmax values assume 1:1 interaction mechanism. Overnight kinetics were performed for all analytes binding to the immobilized proteins. The kinetics experiments were performed in the μL/min. presence of running buffer+1% DMSO. The flow rate of all solutions was maintained at 50 Analyte concentrations were 0 μM, 2.5 μM, 5 μM 10 μM 20 μM and 40 μM.” left out

CT26 carcinoma cells = assay: CT26 injected solid tumor model; type: in vivo, BALB/c mice
Method: (§3) Adult BALB/c mice were injected with 5×10^6 CT26 carcinoma cells subcutaneously in the hind flank. Mice were treated daily with NX-43 at 40 mg/kg via gavage beginning on day 9. Mice were weighed daily, and tumor diameter was measured every 3 days up to day 21. Tumors were collected at weighed at necropsy. A second mouse model was used. APC^min/+ mice were administered DSS in drinking water beginning at 5 weeks of age. Mice were challenged with DSS for a total of 5 days prior to return of standard drinking water. After DSS, mice were treated with NX-43 (40 mg/kg) by oral gavage for four weeks. After four weeks, colons were excised and washed. Number of polyps were counted, and colon weights were obtained.
Total RNA from tumors and lymph nodes can be generated using the Qiagen RNeasy mini kit. cDNA can be generated using the BioRad iScript cDNA synthesis kit. Standard curves can be generated by serial dilution of purified product from a standard PCR reaction with Taq DNA polymerase followed by purification using the Qiagen MinElute PCR purification kit. Expression levels can be obtained from quantitative real-time PCR with SybrGreen supermix on a BioRad CFX96 Thermal cycler followed by normalization to expression of β-actin. Gene expression can be measured for genes marking immune activation such as inflammatory cytokines or surface receptors, immune suppression such as CTLA-4, PD-1, or ARG-1, and tumor growth and metastasis.
H&E stained tumor and lymph node sections can be prepared from tissue collected into 10% buffered formalin and embedded in paraffin. Slides can be examined by a board-certified veterinary pathologist via an Olympus microscope and images will be collected with Image-Pro software. Samples can be scored and evaluated for presence of tumor infiltrating leukocytes, areas of necrosis and proportion of proliferating tumor cells.
Tumors and lymph nodes can be collected into RPMI/FBS buffer containing collagenase (300 U/mL) and DNase (50 U/mL) for digestion. Tissues can be digested for 60 minutes under stirring at 37° C. […]

[2] = system: APC^min/+ model of colorectal cancer; assay: APCmin/+ model of colorectal cancer; type: in vivo, mice; conditions: 40 mg/kg oral, four weeks
Method: as §3

[3] = molecular target: T3, NLRX1 (C terminus, pdb: 3UN9) (Homo sapiens, UniProt Q86UT6); conditions: low affinity NLRX1 ligand, published value; cited from earlier work
T3 construct: the published structure for the C terminus of NLRX1 (pdb: 3UN9)

[4] = tested at 10, 50 and 100 nanomolar

T2 sequence (Q86UT6 87-975 D677A/F680A/F681A/E684A): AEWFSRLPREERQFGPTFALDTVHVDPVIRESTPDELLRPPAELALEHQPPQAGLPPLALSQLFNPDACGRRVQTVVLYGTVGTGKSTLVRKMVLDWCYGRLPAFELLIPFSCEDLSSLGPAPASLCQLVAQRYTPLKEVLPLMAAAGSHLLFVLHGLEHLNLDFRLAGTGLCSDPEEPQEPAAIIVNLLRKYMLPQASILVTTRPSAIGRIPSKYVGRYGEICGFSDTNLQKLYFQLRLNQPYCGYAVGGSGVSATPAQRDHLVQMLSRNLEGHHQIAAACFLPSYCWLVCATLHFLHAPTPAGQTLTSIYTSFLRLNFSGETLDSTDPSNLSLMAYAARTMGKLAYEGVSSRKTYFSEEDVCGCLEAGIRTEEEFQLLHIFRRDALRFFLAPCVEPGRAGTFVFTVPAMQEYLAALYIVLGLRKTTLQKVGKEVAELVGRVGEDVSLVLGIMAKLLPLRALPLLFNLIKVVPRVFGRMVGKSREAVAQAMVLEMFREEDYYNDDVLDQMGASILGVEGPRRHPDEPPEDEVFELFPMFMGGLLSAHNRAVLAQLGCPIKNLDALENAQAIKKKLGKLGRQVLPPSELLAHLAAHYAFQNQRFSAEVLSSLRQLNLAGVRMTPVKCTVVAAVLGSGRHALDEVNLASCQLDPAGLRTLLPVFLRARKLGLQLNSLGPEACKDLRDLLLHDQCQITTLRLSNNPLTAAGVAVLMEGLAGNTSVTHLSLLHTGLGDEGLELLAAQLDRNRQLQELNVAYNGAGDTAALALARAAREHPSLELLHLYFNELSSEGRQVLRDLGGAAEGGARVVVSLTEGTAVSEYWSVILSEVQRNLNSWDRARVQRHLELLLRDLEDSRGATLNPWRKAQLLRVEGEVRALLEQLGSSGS
T1 sequence (Q86UT6 87-975): as the sequence (Q86UT6 87-975 D677A/F680A/F681A/E684A) above, with A591D, A594F, A595F, A598E counted along it
T3 sequence (Q86UT6 629-975 limits assumed): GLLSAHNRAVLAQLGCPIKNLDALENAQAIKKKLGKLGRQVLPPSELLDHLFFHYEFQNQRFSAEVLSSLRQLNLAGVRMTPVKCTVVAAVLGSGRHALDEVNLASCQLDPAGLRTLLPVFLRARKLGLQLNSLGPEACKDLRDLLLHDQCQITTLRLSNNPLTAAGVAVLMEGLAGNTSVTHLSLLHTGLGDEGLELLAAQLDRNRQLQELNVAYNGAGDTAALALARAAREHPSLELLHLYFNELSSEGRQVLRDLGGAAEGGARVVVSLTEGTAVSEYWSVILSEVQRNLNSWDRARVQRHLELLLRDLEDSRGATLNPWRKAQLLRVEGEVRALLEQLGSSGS

| SMILES | function at NLRX1 concluded from the cytokine results (CD4+ T cells) | proportion of IFNγ producing (IFNγ+) CD4+ T cells (CD4+ T cells) | proportion of TNFα producing (TNFα+) CD4+ T cells (CD4+ T cells) | also measured |
| --- | --- | --- | --- | --- |
| Cc1cccc(Oc2cc(Oc3cccc(C)n3)cc(Oc3nc(C)cc(C)n3)c2)n1 [NX-37, 2-(3,5-bis(6-methylpyridin-2-yloxy)phenoxy)-4,6-dimethylpyrimidine] | specific inhibitors of NLRX1 | increased | increased | binding to NLRX1 by surface plasmon resonance (in words) (Human NLRX1 (NLRX1-WT)): bind to NLRX1; change in IL-10 producing cells (CD4+ T cells): Neither small molecule elicited a change; size and dose dependence of the effect on TNFα producing and IFNγ producing cells (CD4+ T cells): dose-dependent effects; binding to the mutated NLRX1 protein [1]: Loss of binding |
| Cc1cccnc1Oc1cc(Oc2ccccc2)cc(Oc2ncccc2C)c1 [NX-43, 2,2′-(5-phenoxy-1,3-phenylene)bis(oxy)bis(3-methylpyridine)] | specific inhibitors of NLRX1 | increased | increased | time after initiation of treatment at which reduction in tumor diameter was observed (CT26 carcinoma cells; 40 mg/kg daily via gavage): less than 10 days; tumor size relative to untreated controls (CT26 carcinoma cells; 40 mg/kg daily via gavage beginning on day 9): reduce; reduction of overall tumor mass (CT26 carcinoma cells; after 12 days of treatment, 40 mg/kg): over 70%; binding to NLRX1 by surface plasmon resonance (in words) (Human NLRX1 (NLRX1-WT)): bind to NLRX1; change in IL-10 producing cells (CD4+ T cells): Neither small molecule elicited a change; size and dose dependence of the effect on TNFα producing and IFNγ producing cells (CD4+ T cells): greater effect than NX-37; overall tumor burden (as evidenced by the colon weight) [2]: reduced; number of colonic polyps ([2]; post-inflammation treatment): reduced; binding to the mutated NLRX1 protein [1]: Loss of binding |
| Cc1cc(O)cnc1Oc1cc(Oc2ccccc2)cc(Oc2ncc(O)cc2C)c1 [NX-44, 6,6′-(5-phenoxy-1,3-phenylene)bis(oxy)bis(5-methyl-3-pyridinol)] | specific inhibitors of NLRX1 | increased | increased |  |
| Cc1cc(N)cnc1Oc1cc(Oc2ncc(N)cc2C)cc(Oc2ncc(N)cc2C)c1 [NX-45, 6,6′,6″-(benzene-1,3,5-triyltris(oxy))tris(5-methylpyridin-3-amine)] | activators of NLRX1 | reduces | reduces | concentrations at which the significant reduction in IFNγ+ cells occurs (CD4+ T cells; [4]): ≥ 50 nM; concentrations at which the significant reduction in TNFα+ cells occurs (CD4+ T cells; [4]): ≥ 10 nM |
| Cc1cccnc1Oc1cc(Oc2ncccc2C)cc(Oc2ncccc2C)c1 [NX-50, 1,3,5-tris (3-methylpyridin-2-yloxy)benzene] | activators of NLRX1 | decreased | decreased |  |
| Cc1cccc(Oc2cc(Oc3ccccc3)cc(Oc3cccc(C)n3)c2)n1 [NX-53, 2,2′-(5-phenoxy-1,3-phenylene)bis(oxy)bis(6-methylpyridine)] |  | weakly increased |  |  |
| Cc1cccc(Oc2cc(Oc3ccccn3)cc(Oc3cccc(C)n3)c2)n1 [NX-54, 2,2′-(5-(pyridin-2-yloxy)-1,3-phenylene)bis(oxy)bis(6-methylpyridine)] |  | minimal effects at high concentrations |  |  |
| Cc1cccc(Oc2cc(Oc3cccc(C)n3)cc(Oc3ccccc3C)c2)n1 [NX-55, 2,2′-(5-(6-methylphenoxy)-1,3-phenylene)bis(oxy)bis(6-methylpyridine)] |  | only a small decrease |  |  |
| Cc1cccc(Oc2cc(Oc3cccc(C)n3)cc(Oc3ccccc3O)c2)n1 [NX-56, 2,2′-(5-(phen-6-ol)oxy-1,3-phenylene)bis(oxy)bis(6-methylpyridine)] |  | weakly increased |  |  |
| CCCC\C=C/C=C/C=C\CCCCCCCC(=O)O [punicic acid] |  |  |  | published binding affinity to NLRX1 [3]: -6.2 kcal/mol |
